Consider 1 compound from patent publication US8969415B2, “Intraocular drug delivery systems” (Allergan, Inc., priority 2006, dated 2015).

In series [1] the test system is specific receptor target of brimonidine located in retina and iris-ciliary body.
For series [2] the following is noted: in vivo.

The structures appear in SMILES notation. Where a name gives a salt, the structure may show the parent alone.

As for `Brc1c(NC2=NCCN2)ccc2nccnc12` [brimonidine, 5-bromo-6-(2-imidazolidinylideneamino)quinoxaline tartrate], in series [1], the “brimonidine concentration required for optic neuroprotection” value is not below 2 nM. For the same compound, the vitreal clearance in series [2] was 0.487 mL/day.
